Source: publication PMC6330093 (Bioconjugate chemistry, 2017)
Like-named read-outs stand apart in the source and are kept apart here.

What was measured:
[1] = variable temperature CD, 20 mM sodium phosphate buffer, pH 7
proteinase K = proteinase K (Parengyodontium album, UniProt P06873); assay: HPLC-based proteolysis assay with proteinase K; assay type: in vitro ADME
proteinase K, sequence (P06873 106-384, species assumed): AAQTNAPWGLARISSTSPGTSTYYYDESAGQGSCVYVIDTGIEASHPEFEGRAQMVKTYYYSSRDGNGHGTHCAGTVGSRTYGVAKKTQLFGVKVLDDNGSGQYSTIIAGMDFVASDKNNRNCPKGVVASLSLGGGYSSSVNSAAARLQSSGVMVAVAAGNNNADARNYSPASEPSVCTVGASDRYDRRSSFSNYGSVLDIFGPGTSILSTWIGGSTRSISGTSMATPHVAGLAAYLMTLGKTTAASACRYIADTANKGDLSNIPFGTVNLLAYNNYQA

SMILES | Tm (melting temperature) ([1]; 50 μM protein) [°C] | k, apparent proteolysis rate constant (proteinase K) [s^−1 × 10^3] | Tm (melting temperature) ([1]; 100 μM protein) [°C]
CC[C@H](C)[C@H](NC(=O)[C@H](Cc1c[nH]cn1)NC(=O)[C@H](CC(N)=O)NC(=O)[C@H](Cc1ccccc1)NC(=O)[C@H](Cc1ccc(O)cc1)NC(=O)[C@H](CC(N)=O)NC(=O)[C@@H](NC(=O)[C@H](CCCNC(=N)N)NC(=O)CNC(=O)[C@H](CO)NC(=O)[C@H](CO)NC(=O)[C@H](CCCNC(=N)N)NC(=O)[C@H](CO)NC(=O)[C@H](CCSC)NC(=O)[C@H](CCCNC(=N)N)NC(=O)[C@H](CCCCN)NC(=O)[C@H](CCC(=O)O)NC(=O)[C@H](Cc1c[nH]c2ccccc12)NC(=O)CNC(=O)[C@@H]1CCCN1C(=O)[C@@H]1CCCN1C(=O)[C@H](CC(C)C)NC(=O)[C@@H](N)CCCCN)C(C)C)C(=O)N[C@H](C(=O)N[C@@H](CC(N)=O)C(=O)N[C@@H](C)C(=O)N[C@@H](CO)C(=O)N[C@@H](CCC(N)=O)C(=O)N[C@@H](Cc1ccccc1)C(=O)N[C@@H](CCC(=O)O)C(=O)N[C@@H](CCCNC(=N)N)C(=O)N1CCC[C@H]1C(=O)N[C@@H](CO)C(=O)NCC(=O)O)[C@@H](C)O [23N] | 27.7 ±0.3 |  | 
CC[C@H](C)[C@H](NC(=O)[C@H](Cc1c[nH]cn1)NC(=O)[C@H](CC(N)=O)NC(=O)[C@H](Cc1ccccc1)NC(=O)[C@H](Cc1ccc(O)cc1)NC(=O)[C@H](CCC(N)=O)NC(=O)[C@@H](NC(=O)[C@H](CCCNC(=N)N)NC(=O)CNC(=O)[C@H](CO)NC(=O)[C@H](CO)NC(=O)[C@H](CCCNC(=N)N)NC(=O)[C@H](CO)NC(=O)[C@H](CCSC)NC(=O)[C@H](CCCNC(=N)N)NC(=O)[C@H](CCCCN)NC(=O)[C@H](CCC(=O)O)NC(=O)[C@H](Cc1c[nH]c2ccccc12)NC(=O)CNC(=O)[C@@H]1CCCN1C(=O)[C@@H]1CCCN1C(=O)[C@H](CC(C)C)NC(=O)[C@@H](N)CCCCN)C(C)C)C(=O)N[C@H](C(=O)N[C@@H](CC(N)=O)C(=O)N[C@@H](C)C(=O)N[C@@H](CO)C(=O)N[C@@H](CCC(N)=O)C(=O)N[C@@H](Cc1ccccc1)C(=O)N[C@@H](CCC(=O)O)C(=O)N[C@@H](CCCNC(=N)N)C(=O)N1CCC[C@H]1C(=O)N[C@@H](CO)C(=O)NCC(=O)O)[C@@H](C)O [23Q] | 39.4 ±0.2 | 46.9 ±5.3 | 
CC[C@H](C)[C@H](NC(=O)[C@H](Cc1c[nH]cn1)NC(=O)[C@H](CC(N)=O)NC(=O)[C@H](Cc1ccccc1)NC(=O)[C@H](Cc1ccc(O)cc1)NC(=O)[C@H](Cc1ccc(O)cc1)NC(=O)[C@@H](NC(=O)[C@H](CCCNC(=N)N)NC(=O)CNC(=O)[C@H](CO)NC(=O)[C@H](CO)NC(=O)[C@H](CCCNC(=N)N)NC(=O)[C@H](CC(N)=O)NC(=O)[C@H](CCSC)NC(=O)[C@H](CCCNC(=N)N)NC(=O)[C@H](CCCCN)NC(=O)[C@H](CCC(=O)O)NC(=O)[C@H](Cc1c[nH]c2ccccc12)NC(=O)CNC(=O)[C@@H]1CCCN1C(=O)[C@@H]1CCCN1C(=O)[C@H](CC(C)C)NC(=O)[C@@H](N)CCCCN)C(C)C)C(=O)N[C@H](C(=O)N[C@@H](CC(N)=O)C(=O)N[C@@H](C)C(=O)N[C@@H](CO)C(=O)N[C@@H](CCC(N)=O)C(=O)N[C@@H](Cc1ccccc1)C(=O)N[C@@H](CCC(=O)O)C(=O)N[C@@H](CCCNC(=N)N)C(=O)N1CCC[C@H]1C(=O)N[C@@H](CO)C(=O)NCC(=O)O)[C@@H](C)O [16N] |  |  | 50.6 ±0.2
CC[C@H](C)[C@H](NC(=O)[C@H](Cc1c[nH]cn1)NC(=O)[C@H](CC(N)=O)NC(=O)[C@H](Cc1ccccc1)NC(=O)[C@H](Cc1ccc(O)cc1)NC(=O)[C@H](Cc1ccc(O)cc1)NC(=O)[C@@H](NC(=O)[C@H](CCCNC(=N)N)NC(=O)CNC(=O)[C@H](CO)NC(=O)[C@H](CO)NC(=O)[C@H](CCCNC(=N)N)NC(=O)[C@H](CO)NC(=O)[C@H](CCSC)NC(=O)[C@H](CCCNC(=N)N)NC(=O)[C@H](CCCCN)NC(=O)[C@H](CCC(=O)O)NC(=O)[C@H](Cc1c[nH]c2ccccc12)NC(=O)CNC(=O)[C@@H]1CCCN1C(=O)[C@@H]1CCCN1C(=O)[C@H](CC(C)C)NC(=O)[C@@H](N)CCCCN)C(C)C)C(=O)N[C@@H](CCC(N)=O)C(=O)N[C@@H](CC(N)=O)C(=O)N[C@@H](C)C(=O)N[C@@H](CO)C(=O)N[C@@H](CCC(N)=O)C(=O)N[C@@H](Cc1ccccc1)C(=O)N[C@@H](CCC(=O)O)C(=O)N[C@@H](CCCNC(=N)N)C(=O)N1CCC[C@H]1C(=O)N[C@@H](CO)C(=O)NCC(=O)O [29Q] | 45.3 ±0.5 | 47.2 ±2.6 | 
CC[C@H](C)[C@H](NC(=O)[C@H](Cc1c[nH]cn1)NC(=O)[C@H](CC(N)=O)NC(=O)[C@H](Cc1ccccc1)NC(=O)[C@H](Cc1ccc(O)cc1)NC(=O)[C@H](Cc1ccc(O)cc1)NC(=O)[C@@H](NC(=O)[C@H](CCCNC(=N)N)NC(=O)CNC(=O)[C@H](CO)NC(=O)[C@H](CCC(N)=O)NC(=O)[C@H](CCCNC(=N)N)NC(=O)[C@H](CO)NC(=O)[C@H](CCSC)NC(=O)[C@H](CCCNC(=N)N)NC(=O)[C@H](CCCCN)NC(=O)[C@H](CCC(=O)O)NC(=O)[C@H](Cc1c[nH]c2ccccc12)NC(=O)CNC(=O)[C@@H]1CCCN1C(=O)[C@@H]1CCCN1C(=O)[C@H](CC(C)C)NC(=O)[C@@H](N)CCCCN)C(C)C)C(=O)N[C@H](C(=O)N[C@@H](CC(N)=O)C(=O)N[C@@H](C)C(=O)N[C@@H](CO)C(=O)N[C@@H](CCC(N)=O)C(=O)N[C@@H](Cc1ccccc1)C(=O)N[C@@H](CCC(=O)O)C(=O)N[C@@H](CCCNC(=N)N)C(=O)N1CCC[C@H]1C(=O)N[C@@H](CO)C(=O)NCC(=O)O)[C@@H](C)O [18Q] | 58.5 ±0.2 | 7.8 ±0.4 | 
CC[C@H](C)[C@H](NC(=O)[C@H](Cc1c[nH]cn1)NC(=O)[C@H](CC(N)=O)NC(=O)[C@H](Cc1ccccc1)NC(=O)[C@H](Cc1ccc(O)cc1)NC(=O)[C@H](Cc1ccc(O)cc1)NC(=O)[C@@H](NC(=O)[C@H](CCCNC(=N)N)NC(=O)CNC(=O)[C@H](CO)NC(=O)[C@H](CO)NC(=O)[C@H](CCCNC(=N)N)NC(=O)[C@H](CO)NC(=O)[C@H](CCSC)NC(=O)[C@H](CCCNC(=N)N)NC(=O)[C@H](CCCCN)NC(=O)[C@H](CCC(=O)O)NC(=O)[C@H](Cc1c[nH]c2ccccc12)NC(=O)CNC(=O)[C@@H]1CCCN1C(=O)[C@@H]1CCCN1C(=O)[C@H](CC(C)C)NC(=O)[C@@H](N)CCCCN)C(C)C)C(=O)N[C@@H](CC(N)=O)C(=O)N[C@@H](CC(N)=O)C(=O)N[C@@H](C)C(=O)N[C@@H](CO)C(=O)N[C@@H](CCC(N)=O)C(=O)N[C@@H](Cc1ccccc1)C(=O)N[C@@H](CCC(=O)O)C(=O)N[C@@H](CCCNC(=N)N)C(=O)N1CCC[C@H]1C(=O)N[C@@H](CO)C(=O)NCC(=O)O [29N] | 50.0 ±0.1 |  | 
CC[C@H](C)[C@H](NC(=O)[C@H](Cc1c[nH]cn1)NC(=O)[C@H](CC(N)=O)NC(=O)[C@H](Cc1ccccc1)NC(=O)[C@H](Cc1ccc(O)cc1)NC(=O)[C@H](Cc1ccc(O)cc1)NC(=O)[C@@H](NC(=O)[C@H](CCCNC(=N)N)NC(=O)CNC(=O)[C@H](CO)NC(=O)[C@H](CC(N)=O)NC(=O)[C@H](CCCNC(=N)N)NC(=O)[C@H](CO)NC(=O)[C@H](CCSC)NC(=O)[C@H](CCCNC(=N)N)NC(=O)[C@H](CCCCN)NC(=O)[C@H](CCC(=O)O)NC(=O)[C@H](Cc1c[nH]c2ccccc12)NC(=O)CNC(=O)[C@@H]1CCCN1C(=O)[C@@H]1CCCN1C(=O)[C@H](CC(C)C)NC(=O)[C@@H](N)CCCCN)C(C)C)C(=O)N[C@H](C(=O)N[C@@H](CC(N)=O)C(=O)N[C@@H](C)C(=O)N[C@@H](CO)C(=O)N[C@@H](CCC(N)=O)C(=O)N[C@@H](Cc1ccccc1)C(=O)N[C@@H](CCC(=O)O)C(=O)N[C@@H](CCCNC(=N)N)C(=O)N1CCC[C@H]1C(=O)N[C@@H](CO)C(=O)NCC(=O)O)[C@@H](C)O [18N] |  |  | 57.5 ±0.1
CC[C@H](C)[C@H](NC(=O)[C@H](Cc1c[nH]cn1)NC(=O)[C@H](CC(N)=O)NC(=O)[C@H](Cc1ccccc1)NC(=O)[C@H](Cc1ccc(O)cc1)NC(=O)[C@H](Cc1ccc(O)cc1)NC(=O)[C@@H](NC(=O)[C@H](CCCNC(=N)N)NC(=O)CNC(=O)[C@H](CO)NC(=O)[C@H](CO)NC(=O)[C@H](CCCNC(=N)N)NC(=O)[C@H](CO)NC(=O)[C@H](CCSC)NC(=O)[C@H](CCCNC(=N)N)NC(=O)[C@H](CCCCN)NC(=O)[C@H](CCC(=O)O)NC(=O)[C@H](Cc1c[nH]c2ccccc12)NC(=O)CNC(=O)[C@@H]1CCCN1C(=O)[C@@H]1CCCN1C(=O)[C@H](CC(C)C)NC(=O)[C@@H](N)CCCCN)C(C)C)C(=O)N[C@H](C(=O)N[C@@H](CC(N)=O)C(=O)N[C@@H](C)C(=O)N[C@@H](CC(N)=O)C(=O)N[C@@H](CCC(N)=O)C(=O)N[C@@H](Cc1ccccc1)C(=O)N[C@@H](CCC(=O)O)C(=O)N[C@@H](CCCNC(=N)N)C(=O)N1CCC[C@H]1C(=O)N[C@@H](CO)C(=O)NCC(=O)O)[C@@H](C)O [32N] |  |  | 45.1 ±0.2
CC[C@H](C)[C@H](NC(=O)[C@H](CC(N)=O)NC(=O)[C@H](CC(N)=O)NC(=O)[C@H](Cc1ccccc1)NC(=O)[C@H](Cc1ccc(O)cc1)NC(=O)[C@H](Cc1ccc(O)cc1)NC(=O)[C@@H](NC(=O)[C@H](CCCNC(=N)N)NC(=O)CNC(=O)[C@H](CO)NC(=O)[C@H](CO)NC(=O)[C@H](CCCNC(=N)N)NC(=O)[C@H](CO)NC(=O)[C@H](CCSC)NC(=O)[C@H](CCCNC(=N)N)NC(=O)[C@H](CCCCN)NC(=O)[C@H](CCC(=O)O)NC(=O)[C@H](Cc1c[nH]c2ccccc12)NC(=O)CNC(=O)[C@@H]1CCCN1C(=O)[C@@H]1CCCN1C(=O)[C@H](CC(C)C)NC(=O)[C@@H](N)CCCCN)C(C)C)C(=O)N[C@H](C(=O)N[C@@H](CC(N)=O)C(=O)N[C@@H](C)C(=O)N[C@@H](CO)C(=O)N[C@@H](CCC(N)=O)C(=O)N[C@@H](Cc1ccccc1)C(=O)N[C@@H](CCC(=O)O)C(=O)N[C@@H](CCCNC(=N)N)C(=O)N1CCC[C@H]1C(=O)N[C@@H](CO)C(=O)NCC(=O)O)[C@@H](C)O [27N] | 54.9 ±0.1 |  | 
